Source: patent US20040024543A1, “Methods and systems for analyzing complex biological systems” (priority 2001, published 2004)

Key:
[1] = test system: Saccharomyces cerevisiae wild type strain BY4743; assay: AF1 yeast gene expression analysis (microarray) after antifungal drug treatment; format: cell-based; details: 2×MIC, two hours
Protocol: Saccharomyces cerevisiae wild type strain BY4743 was purchased from American Type Culture Center (ATCC, Manassas, Va.). The yeast strain was grown in YPD or SD media. […] The cultures started from fresh single colonies were grown in 1.0 ml YPD overnight at 30° C. […] The OD600 was adjusted to 1.0 with YPD media, then 2.0 ml of each was inoculated into three 250 ml flasks, each containing 50 ml of SD media. […] The cells were kept growing for another two hours, then collected by centrifugation at 4000 rpm for 5 minutes at 4° C. Pellets were washed once with ice-cold water, then were lyophilized overnight at 4° C. […] Tubes were vortexed for 30 seconds, then incubated for 10 minutes at room temperature (RT). […] Tubes were incubated for 10 minutes at RT. Samples were centrifuged for 20 minutes as before. Pellets were washed with 400 μl 70% ethanol and centrifuged for 10 minutes as before. The pellet was then dissolved in 100 μl nuclease-free water. RNA quality was determined using the Bioanalyzer 2100 and the RNA 6000 assay (Agilent Technologies, Palo Alto, Calif.) according to manufacturer's instructions. RNA concentrations were determined spectrophotometrically by measuring the absorption at 260 nm in an Ultrospec 2000 (Pharmacia Biotech, Piscataway, N.J.). […] Labeled cRNAs were evaluated using the RNA 6000 assay on the Agilent Bioanalyzer 2100. Labeled cRNA concentrations were determined spectrophotometrically by measuring the absorption at 260 nm in an Ultrospec 2000 (Pharmacia Biotech, Piscataway, N.J.). […] Each pair of samples to be hybridized were independently labeled and hybridized utilizing a fluor reversal for a total of two hybridizations per sample pair. […] Each feature was determined from an array's associated pattern file and a detection algorithm. Intensity values for each feature were determined after subtracting background derived from an average of negative control features. […] Data was evaluated after combining results from fluor reversal replicate hybridizations. […]

Arabidopsis thaliana [2] = assay: MOA1 biochemical (metabolite) profiling by LC-MS and GC-MS of sprayed Arabidopsis; details: MOA1, 20 min and 1 hour after spraying
Arabidopsis thaliana [3] = assay: MOA1 gene expression profiling (22,000 gene arrays) of sprayed Arabidopsis; details: regulated genes at 1 hr compared with internal list of essential genes
Arabidopsis thaliana [4] = assay: SOA1 phenotypic analysis of herbicide-treated Arabidopsis (MIC, Tmic, leaf traits); format: in vivo
Magnaporthe grisea = format: cell-based; details: in the presence of the compound

Row | Compound | # Transripts perturbed by treatment ([1]; P < 0.05) | # Transripts perturbed by treatment ([1]; P < 0.1) | stress-related (commonly regulated) metabolites (Arabidopsis thaliana [2]) | No. of Lethal Genes Altered (Arabidopsis thaliana [3]) | characteristic morphological symptoms (Arabidopsis thaliana [4]; SOA1, in words) | tMic (Dev.) (Arabidopsis thaliana [4]; SOA1, coded score of time to full range of symptoms at MIC) | nitrogen source utilization of M. grisea (Magnaporthe grisea)
1 | C[C@@H]1[C@H](O)[C@@H](C)/C=C/C=C/C=C/C=C/C=C/C=C/C=C/[C@H](O[C@@H]2O[C@H](C)[C@@H](O)[C@H](N)[C@@H]2O)C[C@@H]2O[C@](O)(C[C@@H](O)C[C@@H](O)[C@H](O)CC[C@@H](O)C[C@@H](O)CC(=O)O[C@H]1C)C[C@H](O)[C@H]2C(=O)O [Amphoteracin B] | 4363 | 4652 |  |  |  |  | 
2 | CP(=O)(O)CCC(N)C(=O)O (centres unmarked) [Glufosinate] |  |  | Only a few, if any | 10 | Chlorosis and leaf curling | 1 | only able to utilize glutamine and glutamate as nitrogen sources
3 | CC[C@@H]([C@H](C)O)n1ncn(-c2ccc(N3CCN(c4ccc(OC[C@@H]5CO[C@@](Cn6cncn6)(c6ccc(F)cc6F)C5)cc4)CC3)cc2)c1=O [Posaconazole] | 690 |  |  |  |  |  | 
